Measured values as given in US10155802B2, “Locally-active anticoagulants and anti-inflammatory agents” (priority 2011, dated 2018).
Entries after “also recorded” stand apart in the source; their conditions may differ.

How the values were obtained:
[1] = tested on: FeCl3-induced venous thrombosis (vena cava); test: FeCl3-induced venous model of thrombosis in rats (thrombus weight); type: in vivo; conditions: rat, single-bolus injection via tail vein
Experimental: (§1) Male Sprague-Dawley rats (250-310 g; Charles River Laboratories, St-Constant, QC, Canada) were acclimated for at least 3 days prior to the start of the study. Animals were housed in microisolator cages and were kept on a 12-hr light/dark cycle with constant temperature and humidity. Food and water were provided ad libitum. Various anti-thrombotic agents and peptides of this invention were dissolved in saline (0.9% sodium chloride) prior to use.
The FeCl3-induced venous model of thrombosis in rats was generated as described by Wang and Xu (Wang 2005) with some modifications (Couture 2011). Briefly, rats were anesthetized with a 2.5% isoflurane/oxygen mixture and placed on a heat source (35-37° C.). The vena cava was then exposed via a midline incision and the region between the renal and iliolumbar veins was isolated. […]
Protein content of the thrombus was also measured according to protocol by Wang (Wang 2005). […] Contents of amino acids and small peptides were measured at OD280 with digestion buffer used as a blank.
(§2) Statistical analysis was conducted using GraphPad™ Prism (GraphPad Software Inc., San Diego Calif., USA). Data were analyzed using one-way ANOVA with post-hoc Bonferroni correction for multiple comparisons. The relationship between thrombus weight and thrombus volume was determined by linear regression. […]

[2] = tested on: fresh blood withdrawn from rats with venous thrombosis; test: Clotting time (aPTT) of fresh blood withdrawn from treated rats; type: in vivo; conditions: rat, 0.2 mg/kg bolus + 0.00433 mg/kg/min infusion; 20 minutes after administration versus before
Experimental: FIG. 23 illustrates the clotting times (aPTT) determined for fresh blood withdrawn from rats with venous thrombosis at three time points, the first before drug administration and vessel injury, the second at 20 minutes after FeCl3 application and the third 60 minutes following injection of the respective thrombin inhibitors. Clotting times (aPTT) are shown for different rats administered with each thrombin inhibitor, ZIP4 for MH2-wZIP4, ZIP5 for MH2-wZIP5 and T218 for BRI-T218. Dosage levels for every compound were 0.2 mg/kg for the single-bolus injection and 0.00433 mg/kg/min for the maintenance infusion,
Terminal blood samples were analyzed for aPTT within 15 to 30 minutes of collection using a Coag DX Analyzer with aPTT citrate cartridges (IDEXX Laboratories, Westbrook, Me., USA).

thrombin = thrombin (Homo sapiens, UniProt P00734); test: Fibrinogen clotting assay (concentration needed to double the clotting time = IC50); type: biochemical; conditions: for IC50: IC50 (anti-clotting)
Experimental: The same enzyme kinetic assays were used to determine the inhibitory activities of MH2 and two MH2-derived peptides, MH2-allGS and MH2-GS (Table 4). Clotting assays were carried out to determine the inhibitory activities of the rest of the MH2 peptides by use of the protocols described previously (DiMaio 1990; Taka 2000; Su 2004). The assay employs bovine plasma fibrinogen dissolved at 0.1% in 50 mM Tris-Cl, 100 mM NaCl, 0.1% PEG-8000 at pH 7.6 (i.e. the clotting buffer). In addition to the use of optical densities or ODs (Gill 1989), concentrations of the peptide stock solutions were ranked (and corrected when necessary) by use of quantitative proton NMR spectroscopy (Cavaluzzi 2002). Each assay mixture contained a certain concentration of the peptide, and the reaction was started by the addition of human thrombin to a final concentration of approximately 0.5 nM. Optical absorbance of the assay mixtures was measured at 420 nm using the Spectramax™ plate reader. The onset clotting time was determined as an intersection of the baseline and the tangent line at point of inflection of the clotting curve. The concentration of an MH2 peptide needed to double the clotting time was defined as IC50 (DiMaio 1990) as illustrated in FIG. 4 and summarized in Table 4. The correlation between IC50 values and linker unfolding is similar to that for the BTI series of inhibitors (Table 3). […] (Table 3).

[3] = tested on: FeCl3-induced arterial thrombosis (carotid artery); test: FeCl3-induced arterial model of thrombosis in rats (time to occlusion); type: in vivo; conditions: rat, single bolus 0.2 mg/kg plus maintenance infusion 0.00433 mg/kg/min
Experimental: as §1
The FeCl3-induced arterial model of thrombosis in rats was also generated as described by Wang and Xu (Wang 2005) with some modifications (Couture 2011). Briefly, rats were anesthetized with a 2.5% isoflurane/oxygen mixture and placed on a heat source (35-37° C.). An incision was made over the right carotid artery, and a segment of the artery was exposed via blunt dissection. A Doppler flow probe (Model MA1PRB, Transonic System Inc., Ithaca, N.Y., USA) connected to a perivascular flow module (TS420, Transonic System Inc., Ithaca, N.Y., USA) was then attached to the carotid artery to monitor blood flow. Data were collected and analyzed using the MP100 Biopac™ Systems (Biopac Systems, Santa Barbara, Calif., USA), and the AcgKnowledge™ software (Biopac Systems, Santa Barbara, Calif., USA), respectively. Baseline blood flow was recorded for a minimum of 15 minutes until readings stabilized. Aquasonic 100 gel (Parker Laboratories, Inc., Fairfield, N.J., USA) was added to help conductivity and any fluid accumulating at the site of surgery was removed during data sampling without touching the probe. […] One minute after drug administration, a piece of filter paper (Gel Blot Paper, GB003, Whatman, Piscataway, N.J., USA; 7 mm diameter) saturated with 20% FeCl3 (EMD Chemicals Inc., Gibbstown, N.J., USA) was placed on the exposed surface of the carotid artery and incubated for 3.5 minutes. During the application of FeCl3, the neck region was covered with aluminum foil. At the end of the incubation period, the filter paper was removed and the exposed carotid was covered with a saline-soaked gauze. Time to occlusion was defined as the time from the application of FeCl3 until blood flow decreased to zero. […] Preparing and processing each animal took approximately 1 hr and 7 animals were treated each day. Control animals were always included when the other treatments were being administered. For this reason, the number of animals in the control group is higher than that of the treated-groups.
as §2

Compound: CC[C@H](C)[C@H](N)C(=O)N[C@@H](CCCNC(=N)N)C(=O)N[C@@H](Cc1ccccc1)C(=O)N[C@H](C(=O)N[C@@H](CC(=O)O)C(=O)NCC(=O)N[C@@H](CCC(=O)O)C(=O)N[C@@H](Cc1c[nH]c2ccccc12)C(=O)N[C@H](C(=O)N[C@@H](Cc1c[nH]c2ccccc12)C(=O)N[C@@H](CC(=O)O)C(=O)N[C@@H](CC(=O)O)C(=O)N[C@@H](C)C(=O)N[C@H](C(=O)N[C@@H](CCCCN)C(=O)N[C@H](C(=O)N[C@@H](Cc1c[nH]c2ccccc12)C(=O)N[C@H](C(=O)N[C@@H](Cc1c[nH]c2ccccc12)C(=O)N[C@H](C(=O)N[C@@H](CCC(=O)O)C(=O)NCC(=O)N[C@@H](CC(=O)O)C(=O)N[C@@H](Cc1ccccc1)C(=O)N[C@@H](CCC(=O)O)C(=O)N[C@@H](CCC(=O)O)C(=O)N[C@H](C(=O)N1CCC[C@H]1C(=O)N[C@@H](CCC(=O)O)C(=O)N[C@@H](CCC(=O)O)C(=O)N[C@@H](Cc1ccc(O)cc1)C(=O)N[C@@H](CC(C)C)C(=O)N[C@@H](CCC(N)=O)C(=O)O)[C@@H](C)CC)[C@@H](C)O)[C@@H](C)O)[C@@H](C)O)[C@@H](C)O)[C@@H](C)O)[C@@H](C)O [MH2-wZIP4]
- reduction of thrombus weight, venous model [1]: particularly efficacious in reducing the weight of local thrombus formation; also recorded: more effective than other anti-thrombotic agents (heparin, argatroban and bivalirudin)
- clotting time (aPTT), systemic anticoagulant effect [2]: only a slight prolongation of the clotting time (aPTT)
- Ki (thrombin): ~150 nM
- IC50 (thrombin; T = 25° C.): ~250 nM
- IC50 (thrombin; T = 37° C.): 154 nM
- anti-thrombotic efficacy in arterial model [3]: increases the efficacy
